Biological target: T1, human vasopressin V1b receptor (Homo sapiens, UniProt P47901)
T1 construct: expressed in transfected cells; host or cells: CHO-K1 (cell line hV1b-3H2_CHO), membrane preparation
T1 sequence (P47901 1-424): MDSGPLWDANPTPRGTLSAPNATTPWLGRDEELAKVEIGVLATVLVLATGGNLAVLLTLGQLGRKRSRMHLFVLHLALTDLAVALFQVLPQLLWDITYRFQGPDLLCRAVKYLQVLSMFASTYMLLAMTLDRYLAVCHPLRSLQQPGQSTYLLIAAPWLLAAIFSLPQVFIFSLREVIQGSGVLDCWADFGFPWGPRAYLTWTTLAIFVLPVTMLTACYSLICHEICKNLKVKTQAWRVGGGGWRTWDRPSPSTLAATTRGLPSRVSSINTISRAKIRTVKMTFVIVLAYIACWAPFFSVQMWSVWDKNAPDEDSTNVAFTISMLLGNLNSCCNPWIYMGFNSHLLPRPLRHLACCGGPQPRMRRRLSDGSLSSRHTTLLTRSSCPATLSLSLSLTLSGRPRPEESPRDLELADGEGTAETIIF
Experiment: Vasopressin V1b receptor binding assay
Details: membranes from CHO-K1 cells with stably expressed human V1b receptors; displacement of 1.5 nM 3H-AVP; read-out: V1b receptor affinity (affinity constant Ki)
How it was run: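 Membranes expressing human V1b receptor were incubated with radioligand and test compound (2% DMSO final) in 50 mM Tris, 10 mM MgCl2, 0.1% BSA, pH 7.4, for 60 min at room temperature, in triplicate. 1 uM AVP defined nonspecific binding. Bound ligand was separated by filtration and counted by scintillation; Ki came from nonlinear regression.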

SMILES | Ki [nM]
CCCN1CCN(C2CCN(C(=O)C(c3ccccc3)n3c(=O)n(S(=O)(=O)c4ccc(OC)cc4)c4cc(Cl)ccc43)C2)CC1 (centres unmarked) [Example 74, 5-Chloro-3-(4-methoxybenzenesulfonyl)-1-{2-oxo-1-phenyl-2-[3-(4-propylpiperazin-1-yl)-pyrrolidin-1-yl]ethyl}-1,3-dihydrobenzimidazol-2-one] | < 100
CCCN1CCN(C2CCN(C(=O)C(C)n3c(=O)n(S(=O)(=O)c4ccc(OC)cc4)c4ccc(Cl)cc43)C2)CC1 (centres unmarked) [Example 75, 5-Chloro-1-(4-methoxybenzenesulfonyl)-3-{1-methyl-2-oxo-2-[3-(4-propylpiperazin-1-yl)-pyrrolidin-1-yl]ethyl}-1,3-dihydrobenzimidazol-2-one] | 100 to 500
CCCN1CCN(C2CCN(C(=O)C(c3ccccc3OC)n3c(=O)n(S(=O)(=O)c4ccc(OC)cc4)c4ccc(Cl)cc43)C2)CC1 (centres unmarked) [Example 76, 5-Chloro-1-(4-methoxybenzenesulfonyl)-3-{1-(2-methoxyphenyl)-2-oxo-2-[3-(4-propylpiperazin-1-yl)pyrrolidin-1-yl]ethyl}-1,3-dihydrobenzimidazol-2-one] | < 100
CCCN1CCN(C2CCN(C(=O)C(c3ccc(OC)cc3)n3c(=O)n(S(=O)(=O)c4ccc(OC)cc4)c4ccc(Cl)cc43)C2)CC1 (centres unmarked) [Example 78, 5-Chloro-1-(4-methoxybenzenesulfonyl)-3-{1-(4-methoxyphenyl)-2-oxo-2-[3-(4-propylpiperazin-1-yl)pyrrolidin-1-yl]ethyl}-1,3-dihydrobenzimidazol-2-one] | < 100
CCCN1CCN(C2CCN(C(=O)C(c3cccc(OC)c3)n3c(=O)n(S(=O)(=O)c4ccc(OC)cc4)c4ccc(Cl)cc43)C2)CC1 (centres unmarked) [Example 79, 5-Chloro-1-(4-methoxybenzenesulfonyl)-3-{1-(3-methoxyphenyl)-2-oxo-2-[3-(4-propylpiperazin-1-yl)pyrrolidin-1-yl]-ethyl}-1,3-dihydrobenzimidazol-2-one] | < 100
CCCN1CCN(C2CCN(C(=O)C(c3ccccc3)n3c(=O)n(S(=O)(=O)c4ccc(OC)cc4)c4ccc(I)cc43)C2)CC1 (centres unmarked) [Example 80, 5-Iodo-1-(4-methoxybenzenesulfonyl)-3-{2-oxo-1-phenyl-2-[3-(4-propylpiperazin-1-yl)pyrrolidin-1-yl]ethyl}-1,3-dihydrobenzimidazol-2-one] | < 100
CCCN1CCN(C2CCN(C(=O)C(Cc3ccccc3)n3c(=O)n(S(=O)(=O)c4ccc(OC)cc4)c4ccc(Cl)cc43)C2)CC1 (centres unmarked) [Example 81, 3-{1-Benzyl-2-oxo-2-[3-(4-propylpiperazin-1-yl)pyrrolidin-1-yl]ethyl}-5-chloro-1-(4-methoxybenzenesulfonyl)-1,3-dihydrobenzimidazol-2-one] | 100 to 500
COc1ccc(S(=O)(=O)n2c(=O)n(C(C(=O)N3CCN(c4ccccn4)CC3)c3ccccc3)c3cc(Cl)ccc32)cc1 (centres unmarked) [Example 82, 5-Chloro-1-(4-methoxybenzenesulfonyl)-3-[2-oxo-1-phenyl-2-(4-pyridin-2-ylpiperazin-1-yl)ethyl]-1,3-dihydrobenzimidazol-2-one] | 500 to 10000
COc1ccc(S(=O)(=O)n2c(=O)n(C(C(=O)N3CCCC3c3ccccc3)c3ccccc3)c3cc(Cl)ccc32)cc1 (centres unmarked) [Example 83, 5-Chloro-1-(4-methoxybenzenesulfonyl)-3-[2-oxo-1-phenyl-2-(2-phenylpyrrolidin-1-yl)ethyl]-1,3-dihydrobenzimidazol-2-one] | 500 to 10000
COc1ccc(S(=O)(=O)n2c(=O)n(C(C(=O)N3CCC3)c3ccccc3)c3cc(Cl)ccc32)cc1 (centres unmarked) [Example 84, 3-(2-Azetidin-1-yl-2-oxo-1-phenylethyl)-5-chloro-1-(4-methoxybenzenesulfonyl)-1,3-dihydrobenzimidazol-2-one] | 500 to 10000
COc1ccc(S(=O)(=O)n2c(=O)n(CC(=O)N3CCN(C)CC3)c3cc(Cl)ccc32)cc1 [Example 85, 5-Chloro-1-(4-methoxybenzenesulfonyl)-3-[2-(4-methylpiperazin-1-yl)-2-oxoethyl]-1,3-dihydrobenzimidazol-2-one] | 500 to 10000
COc1ccc(S(=O)(=O)n2c(=O)n(CC(=O)N3CCN(C4CCN(C)CC4)CC3)c3cc(Cl)ccc32)cc1 [Example 86, 5-Chloro-1-(4-methoxybenzenesulfonyl)-3-{2-[4-(1-methylpiperidin-4-yl)piperazin-1-yl]-2-oxoethyl}-1,3-dihydrobenzimidazol-2-one] | 500 to 10000
COc1ccc(S(=O)(=O)n2c(=O)n(CC(=O)N3CCCCC3)c3cc(Cl)ccc32)cc1 [Example 87, 5-Chloro-1-(4-methoxybenzenesulfonyl)-3-(2-oxo-2-piperidin-1-yl-ethyl)-1,3-dihydrobenzimidazol-2-one] | 500 to 10000
COc1ccc(S(=O)(=O)n2c(=O)n(C(C(=O)N3CCC(n4ccnc4)CC3)c3ccccc3)c3cc(Cl)ccc32)cc1 (centres unmarked) [Example 88, 5-Chloro-3-[2-(4-imidazol-1-ylpiperidin-1-yl)-2-oxo-1-phenylethyl]-1-(4-methoxybenzenesulfonyl)-1,3-dihydrobenzimidazol-2-one] | 500 to 10000
COc1ccc(S(=O)(=O)n2c(=O)n(C(C(=O)N3CCN(c4ncncn4)CC3)c3ccccc3)c3cc(Cl)ccc32)cc1 (centres unmarked) [Example 89, 5-Chloro-1-(4-methoxybenzenesulfonyl)-3-[2-oxo-1-phenyl-2-(4-[1,3,5]triazin-2-ylpiperazin-1-yl)-ethyl]-1,3-dihydrobenzimidazol-2-one] | 500 to 10000
COc1ccc(S(=O)(=O)n2c(=O)n(CC(=O)N3CCCC3)c3cc(Cl)ccc32)cc1 [Example 90, 5-Chloro-1-(4-methoxybenzenesulfonyl)-3-(2-oxo-2-pyrrolidin-1-yl-ethyl)-1,3-dihydrobenzimidazol-2-one] | 500 to 10000
CCCN1CCN(C2CCN(C(=O)C(c3ccccc3)n3c(=O)n(S(=O)(=O)c4ccc(OC)cc4)c4ccc(Cl)cc43)C2)CC1 (centres unmarked) [Example 91, 5-Chloro-1-(4-methoxybenzenesulfonyl)-3-{2-oxo-1-phenyl-2-[3-(4-propylpiperazin-1-yl)-pyrrolidin-1-yl]ethyl}-1,3-dihydrobenzimidazol-2-one] | < 100
COc1ccc(S(=O)(=O)n2c(=O)n(C(C(=O)N3CCC(c4ccncc4)C3)c3ccccc3)c3cc(Cl)ccc32)cc1 (centres unmarked) [Example 92, 5-Chloro-1-(4-methoxybenzenesulfonyl)-3-[2-oxo-1-phenyl-2-(3-pyridin-4-yl-pyrrolidin-1-yl)ethyl]-1,3-dihydrobenzimidazol-2-one] | 100 to 500
COc1ccc(S(=O)(=O)n2c(=O)n(C(C(=O)N3CCCC3C(=O)N(C)C)c3ccccc3)c3cc(Cl)ccc32)cc1 (centres unmarked) [Example 93, 1-{2-[6-Chloro-3-(4-methoxybenzenesulfonyl)-2-oxo-2,3-dihydrobenzimidazol-1-yl]-2-phenylacetyl}pyrrolidine-2-dimethylcarboxamide] | 100 to 500
COc1ccc(S(=O)(=O)n2c(=O)n(C(C(=O)N3CCN(c4cccnc4)CC3)c3ccccc3)c3cc(Cl)ccc32)cc1 (centres unmarked) [Example 94, 5-Chloro-1-(4-methoxybenzenesulfonyl)-3-[2-oxo-1-phenyl-2-(4-pyridin-3-ylpiperazin-1-yl)ethyl]-1,3-dihydrobenzimidazol-2-one] | 500 to 10000
COc1ccc(S(=O)(=O)n2c(=O)n(CC(=O)N3CCC(N4CCN(C)CC4)CC3)c3cc(Cl)ccc32)cc1 [Example 95, 5-Chloro-1-(4-methoxybenzenesulfonyl)-3-{2-[4-(4-methylpiperazin-1-yl)piperidin-1-yl]-2-oxo-ethyl}-1,3-dihydrobenzimidazol-2-one] | 500 to 10000
COc1ccc(S(=O)(=O)n2c(=O)n(C(C(=O)N3CCN(CC4CCCN(C)C4)CC3)c3ccccc3)c3cc(Cl)ccc32)cc1 (centres unmarked) [Example 96, 5-Chloro-1-(4-methoxybenzenesulfonyl)-3-{2-[4-(1-methylpiperidin-3-ylmethyl)piperazin-1-yl]-2-oxo-1-phenylethyl}-1,3-dihydrobenzimidazol-2-one] | 100 to 500
COc1ccc(S(=O)(=O)n2c(=O)n(C(C(=O)N(C)C)c3ccccc3)c3cc(Cl)ccc32)cc1 (centres unmarked) [Example 97, 2-[6-Chloro-3-(4-methoxybenzenesulfonyl)-2-oxo-2,3-dihydrobenzimidazol-1-yl]-N,N-dimethyl-2-phenylacetamide] | 500 to 10000
COc1ccc(S(=O)(=O)n2c(=O)n(C(C(=O)N3CCN(C)CC3)c3ccccc3)c3cc(Cl)ccc32)cc1 (centres unmarked) [Example 98, 5-Chloro-1-(4-methoxybenzenesulfonyl)-3-[2-(4-methylpiperazin-1-yl)-2-oxo-1-phenylethyl]-1,3-dihydrobenzimidazol-2-one] | 500 to 10000
COc1ccc(S(=O)(=O)n2c(=O)n(C(C(=O)N3CCOCC3)c3ccccc3)c3cc(Cl)ccc32)cc1 (centres unmarked) [Example 99, 5-Chloro-1-(4-methoxybenzenesulfonyl)-3-(2-morpholin-4-yl-2-oxo-1-phenylethyl)-1,3-dihydrobenzimidazol-2-one] | 500 to 10000
COc1ccc(S(=O)(=O)n2c(=O)n(C(C(=O)NCc3ccccc3)c3ccccc3)c3cc(Cl)ccc32)cc1 (centres unmarked) [Example 100, N-Benzyl-2-[6-chloro-3-(4-methoxybenzenesulfonyl)-2-oxo-2,3-dihydrobenzimidazol-1-yl]-2-phenylacetamide] | 500 to 10000
